Results: patent US5679677A, “Heterocyclic carbamates, process for their preparation and medicaments” (Luitpold Pharma GmbH, priority 1993, dated 1997)
pIC50: −log10 of the molar value. Entries after “also recorded” stand apart in the source; their conditions may differ. Structures can show the parent of a compound that is named as a salt.

target: T1, elastase from human granulocytes (Homo sapiens, UniProt P08246); experiment: Inhibition of granulocyte elastase (enzyme inhibition test, substrate L-pyroglutaminyl-L-prolyl-L-valine-p-nitroanilide); assay type: biochemical; settings: substrate L-pyroglutaminyl-L-prolyl-L-valine-p-nitro-anilide, read-out: IC50 (concentration for 50% inhibition) of granulocytic elastase
T1 construct: from tissue; host or cells: human granulocytes
T1 sequence (P08246 30-247 limits assumed): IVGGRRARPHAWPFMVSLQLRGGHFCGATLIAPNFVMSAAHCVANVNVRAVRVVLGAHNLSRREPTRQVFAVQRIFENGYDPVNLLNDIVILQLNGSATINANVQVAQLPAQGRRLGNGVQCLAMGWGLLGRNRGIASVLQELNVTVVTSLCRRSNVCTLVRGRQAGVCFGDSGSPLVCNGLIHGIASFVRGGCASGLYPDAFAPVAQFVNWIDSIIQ
Experimental: The inhibition of granulocyte elastase was determined in an enzyme inhibition test using elastase from human granulocytes. In this test the specific substrate L-pyroglutaminyl-[…]-nitro-anilide was used ([…] et al., Scand. J. Lab. Invest. 43 (1983) 427-432). The IC50 values (concentrations for 50% inhibition) are shown in Table 1 for exemplary compounds according to the invention.

| pIC50 | Compound |
| --- | --- |
| 5.22 | CCOC(=O)n1c(SCc2ccccc2)nc2ccccc2c1=O [Example 14] |
| 5.40 | O=C(Oc1ccccc1)n1c(SCc2ccccc2)nc2ccccc2c1=O [Example 13] |
| 6.12 | Cc1nn(C(=O)Oc2ccccc2)c(=O)c2ccccc12 [Example 6] |
| 5.27 | CCOC(=O)Oc1cccc2c(=O)n(C(=O)OCC)ccc12 [Example 15, Ethyl 5-ethoxycarbonyloxyisoquinolin-1(2 H)-one-N-carboxylate] |
| 6.52 | CCOC(=O)n1ccc2ccccc2c1=O [Example 2] |
| 6.70 | O=C(Oc1ccccc1)n1ncc2ccccc2c1=O [Example 1, Phenyl 1(2 H)-phthalazinone-N-carboxylate] |
| 5.08 | COC(=O)c1ccc(OC(=O)n2nnc3ccccc3c2=O)cc1 [Example 4] |

test system: not listed separately; experiment: Antithrombotic action in the tail-bleeding time model on the rat (modified test according to Diness); assay type: in vivo; settings: groups of 10, oral administration, 200 mg/kg
Experimental: The compound from Example 14 at a dose of 200 mg/kg thus prolonged the bleeding time by 103%.

| Compound | prolongation of the bleeding time |
| --- | --- |
| CCOC(=O)n1c(SCc2ccccc2)nc2ccccc2c1=O [Example 14] | 103% |

test system: not listed separately; experiment: Hygroscopicity of isolated solid; assay type: physicochemical; settings: hydrochloride

| Compound | hygroscopicity / behaviour in air (in words) |
| --- | --- |
| CN1CCCC(OC(=O)n2ccc3ccccc3c2=O)C1 (stereo not drawn) [Example 19, N'-Methylpiperidin-3-yl isoquinolin-1(2 H)-one-N-carboxylate hydrochloride] | very hygroscopic; also recorded: deliquesces in air |
